Patent publication US8748624B2, “Picolinamido-propanoic acid derivatives useful as glucagon receptor antagonists” (Janssen Pharmaceutica NV, priority 2011, dated 2014)
One block for each molecule: values may come before it.

Legend:
[1] = molecular target: human glucagon receptor (GCGR) (Homo sapiens (Human), UniProt P47871); assay: Inhibition of 125I-glucagon binding to membranes from HEK293 cells expressing the human glucagon receptor; details: membranes of hGluc-1 HEK cells, 125I-glucagon 0.3 nM
How it was run: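 Filtration binding assay on membranes from HEK293 cells stably expressing full-length human GCGR, 6 μg protein/well, with 0.3 nM ¹²⁵I-glucagon plus compound, 2 h at room temperature. Buffer: 50 mM HEPES pH 7.4, 5 mM MgCl2, 1 mM CaCl2, 0.2% BSA. IC50 by non-linear regression, converted to Ki.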

human GCGR = human GCGR (Homo sapiens (Human), UniProt P47871); assay: Cellular functional assay, cAMP readout (glucagon-stimulated cAMP in HEK293 cells expressing human GCGR); assay type: cell-based; details: hGluc-1 HEK cells
How it was run: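 HEK293 cells stably transfected with full-length human GCGR were exposed to compound for 30 min before a 5-min challenge with […] (final) glucagon. Readout was TR-FRET (LANCE) cAMP versus standard curve; IC50s fitted by non-linear regression and converted to Ki values.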

[2] = 2 hours room temperature, IC50 converted to Ki, average if tested more than once
[3] = LANCE TR-FRET, IC50 converted to Ki, average if tested more than once
[4] = meta-substituted comparative compounds (Table 3)

human glucagon receptor (GCGR), sequence (P47871 26-477): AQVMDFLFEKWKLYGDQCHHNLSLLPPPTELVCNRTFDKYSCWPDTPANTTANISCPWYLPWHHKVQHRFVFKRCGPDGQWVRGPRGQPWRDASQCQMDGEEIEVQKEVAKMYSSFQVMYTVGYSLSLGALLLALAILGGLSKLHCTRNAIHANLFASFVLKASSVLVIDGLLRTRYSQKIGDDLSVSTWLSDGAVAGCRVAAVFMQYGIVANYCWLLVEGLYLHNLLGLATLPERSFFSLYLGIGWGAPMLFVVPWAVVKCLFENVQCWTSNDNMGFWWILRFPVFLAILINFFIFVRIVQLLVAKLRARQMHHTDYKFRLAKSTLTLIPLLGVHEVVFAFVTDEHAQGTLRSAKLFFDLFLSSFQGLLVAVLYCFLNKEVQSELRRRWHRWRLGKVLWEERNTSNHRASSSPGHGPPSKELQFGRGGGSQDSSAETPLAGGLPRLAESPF
human GCGR, sequence (P47871 26-477): as above

Compound: CC(C)c1ccc(CNc2ccc(-c3ccc(F)cc3)cc2)c(-c2ccc(C(=O)NCCC(=O)O)nc2)c1 [Compound 158, 3-(5-(2-(((4′-fluoro-[1,1′-biphenyl]-4-yl)amino)methyl)-5-isopropylphenyl)picolinamido)propanoic acid]
Ki [1, 2]: 0.02 µM
Ki (human GCGR; [3]): 0.125 µM

Compound: CC(C)(C)c1ccc(-c2ccc(NCc3ccc(Cl)cc3-c3ccc(C(=O)NCCC(=O)O)nc3)cc2Cl)cc1 [Compound 168, 3-(5-(2-(((4′-(tert-butyl)-2-chloro-[1,1′-biphenyl]-4-yl)amino)methyl)-5-chlorophenyl)picolinamido)propanoic acid]
Ki [1, 2]: 0.0379 µM
Ki (human GCGR; [3]): 0.37 µM

Compound: O=C(O)CCNC(=O)c1ccc(-c2cc(Cl)ccc2CNc2ccc(-c3ccc(Cl)c(C(F)(F)F)c3)c(Cl)c2)cn1 [Compound 169, 3-(5-(5-chloro-2-(((2,4′-dichloro-3′-(trifluoromethyl)-[1,1′-biphenyl]-4-yl)amino)methyl)phenyl)picolinamido)propanoic acid]
Ki [1, 2]: 0.039 µM
Ki (human GCGR; [3]): 0.142 µM

Compound: O=C(O)CCNC(=O)c1ccc(-c2cc(Cl)ccc2CNc2ccc(-c3cccc(C(F)(F)F)c3)c(Cl)c2)cn1 [Compound 170, 3-(5-(5-chloro-2-(((2-chloro-3′-(trifluoromethyl)-[1,1′-biphenyl]-4-yl)amino)methyl)phenyl)picolinamido)propanoic acid]
Ki [1, 2]: 0.0207 µM
Ki (human GCGR; [3]): 0.0668 µM

Compound: O=C(O)CCNC(=O)c1ccc(-c2cc(Cl)ccc2CNc2ccc(-c3ccc(F)c(Cl)c3)c(Cl)c2)cn1 [Compound 171, 3-(5-(5-chloro-2-(((2,3′-dichloro-4′-fluoro-[1,1′-biphenyl]-4-yl)amino)methyl)phenyl)picolinamido)propanoic acid]
Ki [1, 2]: 0.036 µM
Ki (human GCGR; [3]): 0.117 µM

Compound: Cc1ccc(-c2ccc(NCc3ccc(Cl)cc3-c3ccc(C(=O)NCCC(=O)O)nc3)cc2Cl)cc1 [Compound 172, 3-(5-(5-chloro-2-(((2-chloro-4′-methyl-[1,1′-biphenyl]-4-yl)amino)methyl)phenyl)picolinamido)propanoic acid]
Ki [1, 2]: 0.0269 µM
Ki (human GCGR; [3]): 0.0692 µM

Compound: O=C(O)CCNC(=O)c1ccc(-c2cc(-c3ccccc3)ccc2CNc2ccc(-c3ccc(Cl)cc3Cl)cc2)cn1 [Compound 173, 3-(5-(4-(((2′,4′-dichloro-[1,1′-biphenyl]-4-yl)amino)methyl)-[1,1′-biphenyl]-3-yl)picolinamido)propanoic acid]
Ki [1, 2]: 0.027 µM
Ki (human GCGR; [3]): 0.0675 µM

Compound: O=C(O)CCNC(=O)c1ccc(-c2cc(C3=CCCCC3)ccc2CNc2ccc(-c3ccc(F)cc3)cc2)cn1 [Compound 174, 3-(5-(4-(((4′-fluoro-[1,1′-biphenyl]-4-yl)amino)methyl)-2′,3′,4′,5′-tetrahydro-[1,1′-biphenyl]-3-yl)picolinamido)propanoic acid]
Ki [1, 2]: 0.0183 µM
Ki (human GCGR; [3]): 0.11 µM

Compound: O=C(O)CCNC(=O)c1ccc(-c2cc(C3CCCCC3)ccc2CNc2ccc(-c3ccc(F)cc3)cc2)cn1 [Compound 175, 3-(5-(5-cyclohexyl-2-(((4′-fluoro-[1,1′-biphenyl]-4-yl)amino)methyl)phenyl)picolinamido)propanoic acid]
Ki [1, 2]: 0.0242 µM
Ki (human GCGR; [3]): 0.0458 µM

Compound: O=C(O)CCNC(=O)c1ccc(-c2cc(C3=CCCCC3)ccc2CNc2ccc(-c3ccc(Cl)cc3Cl)cc2)cn1 [Compound 176, 3-(5-(4-(((2′,4′-dichloro-[1,1′-biphenyl]-4-yl)amino)methyl)-2′,3′,4′,5′-tetrahydro-[1,1′-biphenyl]-3-yl)picolinamido)propanoic acid]
Ki [1, 2]: 0.04 µM
Ki (human GCGR; [3]): 0.16 µM

Results, then the molecule that gave them:

Ki [1, 4]: > 2.7 µM
Ki (human GCGR; [4]): > 10.4 µM
Compound: O=C(O)CCNC(=O)c1ccc(-c2cc(Cl)cc(CNc3ccc(-c4ccc(F)cc4)cc3)c2)cn1 [Compound M1, 3-(5-(3-chloro-5-(((4′-fluoro-[1,1′-biphenyl]-4-yl)amino)methyl)phenyl)picolinamido)propanoic acid, reference compound]

Ki [1, 4]: > 2.7 µM
Ki (human GCGR; [4]): > 10.4 µM
Compound: COc1ccc(-c2ccc(NCc3cc(Cl)cc(-c4ccc(C(=O)NCCC(=O)O)nc4)c3)cc2)cc1 [Compound M2, 3-(5-(3-chloro-5-(((4′-methoxy-[1,1′-biphenyl]-4-yl)amino)methyl)phenyl)picolinamido)propanoic acid, reference compound]

Ki [1, 4]: > 1.35 µM
Ki (human GCGR; [4]): > 10.4 µM
Compound: O=C(O)CCNC(=O)c1ccc(-c2cc(Cl)cc(CNc3ccc(-c4ccc(Cl)cc4)cc3)c2)cn1 [Compound M3, 3-(5-(3-chloro-5-(((4′-chloro-[1,1′-biphenyl]-4-yl)amino)methyl)phenyl)picolinamido)propanoic acid, reference compound]

Ki [1, 4]: > 1.35 µM
Ki (human GCGR; [4]): > 10.4 µM
Compound: O=C(O)CCNC(=O)c1ccc(-c2cc(Cl)cc(CNc3ccc(-c4ccc(Cl)cc4Cl)cc3)c2)cn1 [Compound M4, 3-(5-(3-chloro-5-(((2′,4′-dichloro-[1,1′-biphenyl]-4-yl)amino)methyl)phenyl)picolinamido)propanoic acid, reference compound]

Ki [1, 4]: > 5.4 µM
Ki (human GCGR; [4]): > 10.4 µM
Compound: O=C(O)CCNC(=O)c1ccc(-c2cc(Cl)cc(C(=O)Nc3ccc(-c4ccc(Cl)cc4)cc3)c2)cn1 [Compound M5, 3-(5-(3-chloro-5-((4′-chloro-[1,1′-biphenyl]-4-yl)carbamoyl)phenyl)picolinamido)propanoic acid, reference compound]
